Source: BindingDB's records for doi:10.1016/s0960-894x(00)00051-2 (Astrazeneca, 2000)

The compounds below were run against T1, Tyrosine-protein kinase JAK3 (Homo sapiens, UniProt P52333) (assay: ChEBML_91954).
T1 sequence (P52333 whole entry): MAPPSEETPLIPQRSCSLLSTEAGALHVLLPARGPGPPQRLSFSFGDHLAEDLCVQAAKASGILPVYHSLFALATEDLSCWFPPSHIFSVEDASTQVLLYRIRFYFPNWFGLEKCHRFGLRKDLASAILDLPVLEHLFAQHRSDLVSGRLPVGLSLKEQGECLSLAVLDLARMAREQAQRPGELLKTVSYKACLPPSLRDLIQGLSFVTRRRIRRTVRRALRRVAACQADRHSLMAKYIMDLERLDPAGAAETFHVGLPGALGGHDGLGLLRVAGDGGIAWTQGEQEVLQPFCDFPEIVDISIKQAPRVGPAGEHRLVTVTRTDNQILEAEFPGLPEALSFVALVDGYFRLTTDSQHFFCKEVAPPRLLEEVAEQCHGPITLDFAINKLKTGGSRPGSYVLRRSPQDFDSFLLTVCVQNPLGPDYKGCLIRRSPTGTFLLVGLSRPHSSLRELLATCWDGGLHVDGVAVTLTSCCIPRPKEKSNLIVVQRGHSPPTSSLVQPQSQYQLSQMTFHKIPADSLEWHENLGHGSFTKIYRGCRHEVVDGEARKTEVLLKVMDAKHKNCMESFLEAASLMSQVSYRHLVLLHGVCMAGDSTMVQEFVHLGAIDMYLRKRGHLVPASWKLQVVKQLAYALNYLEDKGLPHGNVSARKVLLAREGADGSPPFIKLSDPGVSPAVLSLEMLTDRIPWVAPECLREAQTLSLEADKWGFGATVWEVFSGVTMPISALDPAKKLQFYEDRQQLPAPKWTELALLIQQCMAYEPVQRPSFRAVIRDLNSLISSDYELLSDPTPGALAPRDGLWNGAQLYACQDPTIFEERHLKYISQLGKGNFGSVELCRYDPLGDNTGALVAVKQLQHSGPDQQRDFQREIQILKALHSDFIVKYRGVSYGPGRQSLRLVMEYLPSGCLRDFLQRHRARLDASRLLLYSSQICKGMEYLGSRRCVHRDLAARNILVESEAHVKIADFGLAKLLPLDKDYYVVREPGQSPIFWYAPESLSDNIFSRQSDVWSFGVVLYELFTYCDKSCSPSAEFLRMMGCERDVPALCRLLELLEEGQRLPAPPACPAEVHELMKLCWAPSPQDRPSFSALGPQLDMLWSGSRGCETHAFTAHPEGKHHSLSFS
From the text: (§1) In vitro inhibition of Janus kinase 3.

Row | SMILES | IC50
1 | N#C/C(=C\c1ccc(O)c(O)c1)C(=O)NCc1ccccc1 | 12.6 µM
2 | CN(C)CCC(=O)c1ccc2ccccc2c1 | 0.63 µM
3 | COc1ccc2cc(C(=O)CCN3CCOCC3)ccc2c1 | 15.8 µM
4 | O=C(C=Cc1ccccc1Cl)CCN1CCOCC1 | 12.6 µM
5 | C=CC(O)c1ccc2ccccc2c1 (stereo not drawn) | 501 µM
6 | CC(=Cc1ccccc1)C(=O)CCN1CCOCC1 | 12.6 µM
7 | O=C(CCN1CCOCC1)c1ccc2ccccc2c1 | 2 µM
8 | COc1cc2ccc(C(=O)CCN3CCOCC3)cc2cc1OC | 200 µM
9 | O=C(CCN1CCCCCC1)c1ccc2ccccc2c1 | 0.794 µM
10 | O=C(CCN1CCOCC1)c1cccc2ccccc12 | 3.16 µM
11 | O=C(CCN1CCOCC1)c1ccc2ccc3ccccc3c2c1 | 0.501 µM
12 | CC(C)N(CCC(=O)c1ccc2ccccc2c1)Cc1ccccc1 | 0.0794 µM
13 | C=CC(=O)c1ccc2ccccc2c1 [Thr1 inhibitor, 1] | 0.0794 µM

The compounds below were run against T1, Tyrosine-protein kinase JAK3 (assay: as §1).

Row | SMILES | IC50
14 | CC(C)(CN1CCOCC1)C(=O)c1ccc2ccccc2c1 | > 1000 µM
15 | O=C(CCCN1CCOCC1)c1ccc2ccccc2c1 | > 1000 µM
16 | O=c1c(CN2CCOCC2)coc2cc3ccccc3cc12 | > 1000 µM
17 | O=C(CCNCc1ccccc1)c1ccc2ccccc2c1 | > 1000 µM
18 | ON=C(CCN1CCOCC1)c1ccc2ccccc2c1 | > 1000 µM
